Assay results: patent publication US8354436B2 (4SC Discovery GmbH, priority 2011, dated 2013)
Read-outs that look alike come from different tables or passages of the source.

Key:
Assay type in all cases: cell-based
IL-17FF = IL-17FF production by PHA-stimulated human PBMC (human IL-17F ELI-Pair); settings: 48 hours
Method: (§1) Analysis of Proliferation of and Cytokine Production by Human PBMC Stimulated with PHA
(§2) Peripheral blood mononuclear cells (PBMC) from healthy human donors were purified using Accuspin™ System-Histopaque-1077 (Sigma) according to the protocol recommended by the manufacturer. Purified PBMC were then washed twice with phosphate-buffered saline (PBS) and resuspended in RPMI1640 culture medium supplemented with 10% dialyzed heat inactivated fetal calf serum, 1.5 mM L-glutamine, 100 U penicillin/ml, and […] (all from PAN Biotech, Aidenbach, Germany). For stimulation, PBMC were seeded at 1×10^5 cells/well, activated with 2 μg/ml phytohaemagglutinin (PHA, Sigma) and incubated with the test compounds for 48 hours. IL-17A, IL-17F and INF-γ were then determined in the culture supernatant using a Luminex BioPlex system, following the manufacturer's instructions (BioRad, Munich, Germany). For screening, compounds were used at 10, 1, 0.1 and 0.01 μM. To determine the IC50, compounds were titrated semilogarithmically.
(§3) Cytokines were determined in the aforementioned culture supernatant using the following methods: IL-17AA/AF was measured using the Luminex BioPlex system (BioRad, Munich, Germany); IL-17AA using the human homodimer IL-17A ELISA Ready Set Go Kit from eBioscience (Frankfurt, Germany); IL-17FF using the human IL-17F ELI-Pair from Hölzel DiagnosticaGmBH (Köln, Germany); and IFN-γ using the OptEIA human IFN-g ELISA from BD Bioscience (Heidelberg, Germany), all following the manufacturer's instructions.

IFN-γ = IFN-γ production by PHA-stimulated human PBMC (OptEIA human IFN-g ELISA); settings: 48 hours
Method: as §1, §2, §3

[1] = system: PBMC from healthy human donors; experiment: T cell proliferation assay (PHA-stimulated human PBMC, BrdU ELISA); settings: PHA-stimulated human PBMC, 48 hours, column D, read-out: IC50 (Tcell proliferation)
Method: Cell proliferation was analysed using the BrdU based cell proliferation ELISA from Roche (Mannheim, Germany) according to the manufacturer's instructions. T Cell Proliferation Assay Peripheral blood mononuclear cells (PBMC) from healthy human donors were isolated by centrifugation over Ficoll-Hypaque (Sigma-Aldrich, Germany) according to manufacturer's instructions. Purified PBMC were washed twice with PBS and resuspended in RPMI1640 culture medium supplemented with 10% dialyzed heat inactivated fetal calf serum, 1.5 mM L-glutamine, 100 U penicillin/ml, and […] (all from PAN Biotech, Aidenbach, Germany). For stimulation, PBMC were seeded at 1×10^5 cells/well, activated with 2 μg/ml phytohaemagglutinin (PHA, Sigma) and incubated with the test compound. After 48 hours proliferation was measured using the BrdU based cell proliferation ELISA from Roche (Mannheim, Germany) according to the manual.

[2] = human PBMC, 2 μg/ml PHA, read-out: B: IC50 (IL-17FF)
[3] = human PBMC, 2 μg/ml PHA, read-out: C: IC50 (IFNγ)
[4] = PHA-stimulated human PBMC, column B, read-out: IC50 (IL-17FF)
[5] = PHA-stimulated human PBMC, column C, read-out: IC50 (IFNγ)

Row | Compound | IC50 (IL-17FF; [4]) [µM] | IC50 (IFN-γ; [5]) [µM] | also measured
1 | CC(=O)Nc1cccc(-n2ncc(-c3onc(-c4c(F)cccc4Cl)c3-c3nnc(C)o3)c2C(F)(F)F)c1 [Example B-11, N-(3-(4-(3-(2-chloro-6-fluorophenyl)-4-(5-methyl-1,3,4-oxadiazol-2-yl)isoxazol-5-yl)-5-(trifluoromethyl)-1H-pyrazol-1-yl)phenyl)acetamide] | – | – | IC50 (IL-17FF; [2]): 1 to 10 µM; IC50 (IFN-γ; [3]): 0.1 to 1 µM
2 | CC(=O)Nc1cccc(-n2ncc(-c3onc(-c4c(F)cccc4Cl)c3-c3nnco3)c2C(F)(F)F)c1 [Example B-13, N-(3-(4-(3-(2-chloro-6-fluorophenyl)-4-(1,3,4-oxadiazol-2-yl)isoxazol-5-yl)-5-(trifluoromethyl)-1H-pyrazol-1-yl)phenyl)acetamide] | – | – | IC50 (IL-17FF; [2]): 1 to 10 µM; IC50 (IFN-γ; [3]): 1 to 10 µM
3 | CNC(=O)c1c(-c2c(F)cccc2Cl)noc1-c1cnn(CC(C)C)c1C(F)(F)F [Example I-37, 3-(2-chloro-6-fluorophenyl)-5-(1-isobutyl-5-(trifluoromethyl)-1H-pyrazol-4-yl)-N-methylisoxazole-4-carboxamide] | 0.1 to 1 | 1 to 10 | –
4 | CCOC(=O)c1csc(-n2ncc(-c3onc(-c4c(F)cccc4Cl)c3C(=O)OC)c2C(F)(F)F)n1 [Example I-53, methyl 3-(2-chloro-6-fluorophenyl)-5-(1-(4-(ethoxycarbonyl)thiazol-2-yl)-5-(trifluoromethyl)-1H-pyrazol-4-yl)isoxazole-4-carboxylate] | 1 to 10 | 1 to 10 | –
5 | CNC(=O)c1c(-c2c(F)cccc2Cl)noc1-c1cnn(-c2ccc(OC(F)(F)F)cc2)c1C(F)(F)F [Example I-56, 3-(2-chloro-6-fluorophenyl)-N-methyl-5-(1-(4-(trifluoromethoxy)phenyl)-5-(trifluoromethyl)-1H-pyrazol-4-yl)isoxazole-4-carboxamide] | 1 to 10 | – | –
6 | CNC(=O)c1c(-c2c(F)cccc2Cl)noc1-c1cnn(-c2ccccc2OC)c1C(F)(F)F [Example I-60, 3-(2-chloro-6-fluorophenyl)-5-(1-(2-methoxyphenyl)-5-(trifluoromethyl)-1H-pyrazol-4-yl)-N-methylisoxazole-4-carboxamide] | 1 to 10 | 1 to 10 | –
7 | CNC(=O)c1c(-c2ccc(Cl)c(Cl)c2)noc1-c1cnn(-c2cccc(F)c2)c1C(F)(F)F [Example I-98, 3-(3,4-dichlorophenyl)-5-(1-(3-fluorophenyl)-5-(trifluoromethyl)-1H-pyrazol-4-yl)-N-methylisoxazole-4-carboxamide] | 1 to 10 | – | –
8 | Fc1cccc(-n2ncc(-c3onc(-c4c(F)cccc4Cl)c3C(=S)N3CCOCC3)c2C(F)(F)F)c1 [Example I-129, (3-(2-chloro-6-fluorophenyl)-5-(1-(3-fluorophenyl)-5-(trifluoromethyl)-1H-pyrazol-4-yl)isoxazol-4-yl)(morpholino)meth-anethione] | 1 to 10 | – | –
9 | Fc1cccc(Cl)c1-c1noc(-c2cnn(-c3ccc(OC(F)(F)F)cc3)c2C(F)(F)F)c1Br [IB-25, 4-bromo-3-(2-chloro-6-fluorophenyl)-5-(1-(4-(trifluoromethoxy)phenyl)-5-(trifluoromethyl)-1H-pyrazol-4-yl)isoxazole] | 1 to 10 | – | –
10 | CC(C)OC(=O)c1c(-c2c(F)cccc2Cl)noc1-c1cnn(-c2cccc(S(N)(=O)=O)c2)c1C(F)(F)F [IB-73, isopropyl 3-(2-chloro-6-fluorophenyl)-5-(1-(3-sulfamoylphenyl)-5-(trifluoromethyl)-1H-pyrazol-4-yl)isoxazole-4-carboxylate] | – | 1 to 10 | IC50 [1]: 1 to 10 µM

The next lines start with results.

Row | IC50 (IL-17FF; [4]) [µM] | IC50 (IFN-γ; [5]) [µM] | Compound | also measured
11 | 1 to 10 | 1 to 10 | COc1cc(OC)c(CNC(=O)c2c(-c3c(F)cccc3Cl)noc2-c2cnn(-c3ccccc3F)c2C(F)(F)F)c(OC)c1 [Example I-2, 3-(2-chloro-6-fluorophenyl)-5-(1-(2-fluorophenyl)-5-(trifluoromethyl)-1H-pyrazol-4-yl)-N-(2,4,6-trimethoxyben-zyl)isoxazole-4-carboxamide] | –
12 | 0.01 to 0.1 | 0.1 to 1 | COC(=O)c1sccc1-n1ncc(-c2onc(-c3c(F)cccc3Cl)c2C(=O)OC)c1C(F)(F)F [Example I-14, methyl 3-(2-chloro-6-fluorophenyl)-5-(1-(2-(methoxycarbonyl)thiophen-3-yl)-5-(trifluoromethyl)-1H-pyrazol-4-yl)isoxazole-4-carboxylate] | –
13 | 1 to 10 | 1 to 10 | CN(C)C(=O)c1c(-c2c(F)cccc2Cl)noc1-c1cnn(-c2ccccc2F)c1C(F)(F)F [Example I-20, 3-(2-chloro-6-fluorophenyl)-5-(1-(2-fluorophenyl)-5-(trifluoromethyl)-1H-pyrazol-4-yl)-N,N-dimethylisoxazole-4-carboxamide] | –
14 | 0.1 to 1 | 0.1 to 1 | O=C(c1c(-c2c(F)cccc2Cl)noc1-c1cnn(-c2ccccc2F)c1C(F)(F)F)N1CCCC1 [Example I-22, (3-(2-chloro-6-fluorophenyl)-5-(1-(2-fluorophenyl)-5-(trifluoromethyl)-1H-pyrazol-4-yl)isoxazol-4-yl)(pyrrolidin-1-yl)methanone] | –
15 | 0.1 to 1 | 0.1 to 1 | COC(=O)c1c(-c2c(F)cccc2Cl)noc1-c1cnn(-c2ccccc2OC)c1C(F)(F)F [Example I-52, methyl 3-(2-chloro-6-fluorophenyl)-5-(1-(2-methoxyphenyl)-5-(trifluoromethyl)-1H-pyrazol-4-yl)isoxazole-4-carboxylate] | –
16 | 1 to 10 | 0.1 to 1 | CNC(=O)c1c(-c2c(F)cccc2Cl)noc1-c1cnn(-c2cc(F)cc(F)c2)c1C(F)(F)F [Example I-58, 3-(2-chloro-6-fluorophenyl)-5-(1-(3,5-difluorophenyl)-5-(trifluoromethyl)-1H-pyrazol-4-yl)-N-methylisoxazole-4-carboxamide] | –
17 | 1 to 10 | – | CCOC(=O)c1c(-c2ccc(Cl)cc2)noc1-c1cnn(-c2ccc(F)cc2)c1C(F)(F)F [Example I-78, ethyl 3-(4-chlorophenyl)-5-(1-(4-fluorophenyl)-5-(trifluoromethyl)-1H-pyrazol-4-yl)isoxazole-4-carboxylate] | –
18 | 1 to 10 | – | CNC(=O)c1c(-c2ccccc2F)noc1-c1cnn(-c2cccc(F)c2)c1C(F)(F)F [Example I-93, 3-(2-fluorophenyl)-5-(1-(3-fluorophenyl)-5-(trifluoromethyl)-1H-pyrazol-4-yl)-N-methylisoxazole-4-carboxamide] | –
19 | 1 to 10 | – | CNC(=O)c1c(-c2c(F)cccc2Cl)noc1-c1cnn(-c2ccccc2Cl)c1C(F)(F)F [IB-50, 3-(2-chloro-6-fluorophenyl)-5-(1-(2-chlorophenyl)-5-(trifluoromethyl)-1H-pyrazol-4-yl)-N-methylisoxazole-4-carboxamide] | –
20 | – | 1 to 10 | CON(C)C(=O)c1c(-c2c(F)cccc2Cl)noc1-c1cnn(-c2ccccc2Br)c1C(F)(F)F [IB-74, 5-(1-(-2-bromophenyl)-5-(trifluoromethyl)-1H-pyrazol-4-yl)-3-(2-chloro-6-fluorophenyl)-N-methoxy-N-methylisoxazole-4-carboxamide] | IC50 [1]: 1 to 10 µM
21 | 1 to 10 | – | CNC(=O)c1c(-c2c(F)cccc2Cl)noc1-c1cnn(-c2cccc(NC(C)=O)c2)c1C(F)(F)F [IB-91, 5-(1-(3-acetamidophenyl)-5-(trifluoromethyl)-1H-pyrazol-4-yl)-3-(2-chloro-6-fluorophenyl)-N-methylisoxazole-4-carboxamide] | –
